According to PubChem BioAssay (NCI):
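Assay format: 96-well plates, 48-hour exposure. TGI marks complete inhibition of growth.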

Assays:
Test in all cases: DTP human tumour cell line panel, 48 h
RXF-631 renal = system: RXF-631 renal
HCT-116 colon = system: HCT-116 colon
MALME-3M melanoma = system: MALME-3M melanoma
IGROV1 ovarian = system: IGROV1 ovarian
SK-MEL-28 melanoma = system: SK-MEL-28 melanoma
CAKI-1 renal = system: CAKI-1 renal
RPMI-8226 leukemia = system: RPMI-8226 leukemia
HL-60(TB) leukemia = system: HL-60(TB) leukemia
SF-539 CNS = system: SF-539 CNS
DMS 273 small cell lung = system: DMS 273 small cell lung
NCI-H460 lung = system: NCI-H460 lung
M14 melanoma = system: M14 melanoma
SR leukemia = system: SR leukemia
NCI-H23 lung = system: NCI-H23 lung
HOP-92 NSCLC = system: HOP-92 NSCLC
HOP-62 NSCLC = system: HOP-62 NSCLC
HCC-2998 colon = system: HCC-2998 colon
COLO 205 colon = system: COLO 205 colon
DLD-1 colon = system: DLD-1 colon
SK-OV-3 ovarian = system: SK-OV-3 ovarian
SF-268 CNS = system: SF-268 CNS
SNB-78 CNS = system: SNB-78 CNS
SK-MEL-2 melanoma = system: SK-MEL-2 melanoma
SN12C renal = system: SN12C renal
M19-MEL melanoma = system: M19-MEL melanoma
SNB-75 CNS = system: SNB-75 CNS
MOLT-4 leukemia = system: MOLT-4 leukemia
A498 renal = system: A498 renal
OVCAR-4 ovarian = system: OVCAR-4 ovarian
CCRF-CEM leukemia = system: CCRF-CEM leukemia
NCI-H226 lung = system: NCI-H226 lung
LXFL 529 NSCLC = system: LXFL 529 NSCLC
ACHN renal = system: ACHN renal
786-0 renal = system: 786-0 renal
K-562 leukemia = system: K-562 leukemia
UACC-62 melanoma = system: UACC-62 melanoma
SF-295 CNS = system: SF-295 CNS
SNB-19 CNS = system: SNB-19 CNS
HOP-18 NSCLC = system: HOP-18 NSCLC
OVCAR-3 ovarian = system: OVCAR-3 ovarian
LOX IMVI melanoma = system: LOX IMVI melanoma
RXF 393 renal = system: RXF 393 renal
HCT-15 colon = system: HCT-15 colon
KM20L2 colon = system: KM20L2 colon
UO-31 renal = system: UO-31 renal
OVCAR-8 ovarian = system: OVCAR-8 ovarian
SW-620 colon = system: SW-620 colon
HT29 colon = system: HT29 colon
A549 NSCLC = system: A549 NSCLC
U251 CNS = system: U251 CNS
KM12 colon = system: KM12 colon
UACC-257 melanoma = system: UACC-257 melanoma
SK-MEL-5 melanoma = system: SK-MEL-5 melanoma
EKVX NSCLC = system: EKVX NSCLC
NCI-H522 lung = system: NCI-H522 lung
OVCAR-5 ovarian = system: OVCAR-5 ovarian
TK-10 renal = system: TK-10 renal

COc1cc([C@@H]2Oc3cc4oc(-c5ccccc5)cc(=O)c4c(O)c3O[C@H]2OC)ccc1O
TGI (RXF-631 renal): 32.6 µM
TGI (HCT-116 colon): 19.6 µM
TGI (MALME-3M melanoma): 30.6 µM
TGI (IGROV1 ovarian): 53.1 µM
TGI (SK-MEL-28 melanoma): 16.8 µM
TGI (CAKI-1 renal): 34.4 µM
TGI (RPMI-8226 leukemia): 25.9 µM
TGI (HL-60(TB) leukemia): 8.08 µM
TGI (SF-539 CNS): 30.6 µM
TGI (DMS 273 small cell lung): 14.4 µM
TGI (NCI-H460 lung): 15.2 µM
TGI (M14 melanoma): 24.7 µM
TGI (SR leukemia): 18.5 µM
TGI (NCI-H23 lung): 32.4 µM
TGI (HOP-92 NSCLC): 39.5 µM
TGI (HOP-62 NSCLC): 26.9 µM
TGI (HCC-2998 colon): 26.5 µM
TGI (COLO 205 colon): 50.2 µM
TGI (DLD-1 colon): 21.2 µM
TGI (SK-OV-3 ovarian): 34.1 µM
TGI (SF-268 CNS): 19.7 µM
TGI (SNB-78 CNS): 38.2 µM
TGI (SK-MEL-2 melanoma): 31.2 µM
TGI (SN12C renal): 25.5 µM
TGI (M19-MEL melanoma): 24 µM
TGI (SNB-75 CNS): 25.1 µM
TGI (MOLT-4 leukemia): 21.3 µM
TGI (A498 renal): 32.3 µM
TGI (OVCAR-4 ovarian): 29.1 µM
TGI (CCRF-CEM leukemia): 27.8 µM
TGI (NCI-H226 lung): 38.4 µM
TGI (LXFL 529 NSCLC): 25.2 µM
TGI (ACHN renal): 23.1 µM
TGI (786-0 renal): 20.8 µM
TGI (K-562 leukemia): 25.9 µM
TGI (UACC-62 melanoma): 37.7 µM

Cc1nc(-n2nc(-c3ccccc3)cc2-c2ccccc2)sc1C(=O)/C=C/c1ccccc1
TGI (SF-295 CNS): > 100 µM
TGI (RXF-631 renal): > 100 µM
TGI (MALME-3M melanoma): > 100 µM
TGI (IGROV1 ovarian): > 100 µM
TGI (SNB-19 CNS): > 100 µM
TGI (SK-MEL-28 melanoma): > 100 µM
TGI (CAKI-1 renal): > 100 µM
TGI (HOP-18 NSCLC): > 100 µM
TGI (RPMI-8226 leukemia): > 100 µM
TGI (OVCAR-3 ovarian): > 100 µM
TGI (LOX IMVI melanoma): > 100 µM
TGI (HL-60(TB) leukemia): > 100 µM
TGI (RXF 393 renal): > 100 µM
TGI (SF-539 CNS): > 100 µM
TGI (DMS 273 small cell lung): > 100 µM
TGI (NCI-H460 lung): > 100 µM
TGI (HCT-15 colon): > 100 µM
TGI (NCI-H23 lung): > 100 µM
TGI (HOP-92 NSCLC): > 100 µM
TGI (HOP-62 NSCLC): > 100 µM
TGI (HCC-2998 colon): > 100 µM
TGI (KM20L2 colon): > 100 µM
TGI (COLO 205 colon): > 100 µM
TGI (UO-31 renal): > 100 µM
TGI (OVCAR-8 ovarian): > 100 µM
TGI (DLD-1 colon): > 100 µM
TGI (SW-620 colon): > 100 µM
TGI (SK-OV-3 ovarian): > 100 µM
TGI (SF-268 CNS): > 100 µM
TGI (SNB-78 CNS): > 100 µM
TGI (HT29 colon): > 100 µM
TGI (A549 NSCLC): > 100 µM
TGI (SK-MEL-2 melanoma): > 100 µM
TGI (U251 CNS): > 100 µM
TGI (KM12 colon): > 100 µM
TGI (UACC-257 melanoma): > 100 µM
TGI (SN12C renal): > 100 µM
TGI (M19-MEL melanoma): > 100 µM
TGI (SK-MEL-5 melanoma): > 100 µM
TGI (SNB-75 CNS): 89.7 µM
TGI (MOLT-4 leukemia): > 100 µM
TGI (A498 renal): > 100 µM
TGI (CCRF-CEM leukemia): > 100 µM
TGI (EKVX NSCLC): > 100 µM
TGI (NCI-H522 lung): > 100 µM
TGI (ACHN renal): > 100 µM
TGI (786-0 renal): > 100 µM
TGI (K-562 leukemia): > 100 µM
TGI (OVCAR-5 ovarian): > 100 µM
TGI (TK-10 renal): > 100 µM
TGI (UACC-62 melanoma): > 100 µM
